“Also recorded” adds a separate entry of the source.
Experiments:
[1] = system: swine model of 40% total burned surface area burn; assay: Porcine burn shock pilot study, 40% total burned surface area contact burn; format: in vivo, Juvenile female Yorkshire swine; details: for BE / HCO3 / Lactate / TCO2 / arterial blood gas pH / pCO2 / pO2 / sO2: 4 Hours after Burn; for Alanine Aminotransferase / Albumin / Alkaline Phosphatase / Amylase / Aspartate Aminotransferase / BUN / Basophils / Bicarbonate / Calculated Osmolality / Cellular Hemoglobin (Optical) / Cellular Hemoglobin Concentration Mean (Optical) / Chloride / Eosinophils / Glucose / Hematocrit / Hemoglobin / Hemoglobin Distribution Width / Large Unstained Cells / Lipase / Lymphocytes / Mean Corpuscular Hemoglobin / Mean Corpuscular Hemoglobin Concentration / Mean Corpuscular Volume / Mean Platelet Volume / Monocytes / Myoglobin / Neutrophils / Platelets / Potassium / Red Blood Cells / Red Cell Distribution Width / Sodium / Total Protein / White Blood Cells / Creatinine: 24 Hours after Burn; for mortalities: n=4, over 48 hours
Protocol: Using n=12 animals, we performed a pilot study of the effects of HIF-1α pathway activation with MK-8617 on survival time and volume of resuscitation fluid required to maintain urine output over 48 hours in a swine model of 40% total burned surface area mixed deep and partial thickness contact burn. Animals were block randomized into three groups, including control (vehicle only; n=4), low-dose (15 mg; n=4) and high-dose (50 mg; n=4). MK-8617 for injection was dissolved in a 45:5:50 mixture of polyethylene glycol (molecular weight: 400 daltons): dimethylsulfoxide: saline with pH adjusted to 8.4. Juvenile female Yorkshire swine weighing between 35-50 kg underwent open surgical splenectomy, then were allowed to recover for a minimum of two weeks before instrumentation with central venous and arterial lines and experimental burn. Animals received an injection of MK-8617 or vehicle at 30 minutes after burn followed by a standard-of-care crystalloid resuscitation with lactated Ringer's solution starting at 60 minutes after burn-we used a custom-built, fully closed-loop, automated resuscitation system based on the Burn Navigator to deliver goal-directed resuscitation with a target urine output of 30-50 ml/hr. Time to mortality, total fluid volumes infused, urine output generated, and serological measures of organ function were measured. Investigators remained blinded to treatment allocations until after data analysis was complete. Survival was analyzed using a log-rank test followed by a Tukey's studentized range multiple comparisons adjustment. Serological measures were analyzed using a linear model with baseline correction followed by a Tukey-Kramer multiple comparisons adjustment.

[2] = system: rats with lethal hemorrhagic shock; assay: Intravenous PHDi in lethal hemorrhagic shock, fixed-volume hemorrhage 65% EBV, FWB at 60 min (FIG. 7-10); format: in vivo, Sprague-Dawley rats
Protocol: For the experiments in this disclosure, fixed-volume hemorrhage (65% estimated blood volume (EBV)) was performed in isoflurane anesthetized Sprague-Dawley rats. In this model, the initial 40% of total volume of hemorrhage was performed by continuous blood draw using syringe pump within first 2 min, followed by manually repeatedly drawing 1.5 ml of whole blood every 2 min at 10 min, and 1 ml of whole blood every 3 min thereafter until achieving the targeted volume of hemorrhage, and thus 40% bleeding occurs within the first 2 minutes (fast hemorrhage), another 40% between 2-10 minutes, and the rest 20% between 10-22 minutes (slow hemorrhage).
Then, the animals were treated with 500 u L PHDi (MK-8617 at 1 mg/ml, in a dissolvent composed of 5% DMSO, 10% PEG 400, and 85% normal saline, average dose at 1.24±0.07 mg/kg) or vehicle (n=13 each) intravenously at 20 min after hemorrhage. At 60 min after hemorrhage, surviving animals were resuscitated with fresh whole blood (FWB, 20% EBV) using shed blood collected at 2 min after hemorrhage. The 60 min- or 4 hour survivability was analyzed
For the measurement of metabolites (lactate and HCO3) and ATP, blood samples were harvested at time point 0 (baseline), 20 minutes (prior to PHDi), 60 minutes (prior to fresh whole blood (FWB)), and 240 minutes after polytrauma/hemorrhage.

[3] = low and high dose versus control

`COc1ccc(C(NC(=O)c2cnc(-c3cccnn3)nc2O)c2ccc(OC)cc2)cc1` [MK-8617, N-[Bis(4-methoxyphenyl)methyl]-4-hydroxy-2-(pyridazin-3-yl)pyrimidine-5-carboxamide] gave a BE ([1]; High Dose (50 mg)) of 3.75 ± 2.99 mmol/L, an HCO3 ([1]; High Dose (50 mg)) of 28.18 ± 2.44 mmol/L and a Lactate ([1]; High Dose (50 mg)) of 6.98 ± 3.09 mmol/L. The TCO2 ([1]; High Dose (50 mg)) was 29.50 ± 2.52 mmol/L, the “arterial blood gas pH” value ([1]; High Dose (50 mg)) was 7.43±0.05 and the pCO2 ([1]; High Dose (50 mg)) was 42.25 ± 4.07 mmHg. The pO2 ([1]; High Dose (50 mg)) was 209.00 ± 2.45 mmHg, the sO2 ([1]; High Dose (50 mg)) was 100 ± 0% and the “Alanine Aminotransferase” value ([1]; High Dose (50 mg)) was 50.00 ± 10.23 U/L. The Albumin ([1]; High Dose (50 mg)) was 0.55 ± 0.19 g/dL, the “Alkaline Phosphatase” value ([1]; High Dose (50 mg)) was 159.75 ± 39.11 U/L and the Amylase ([1]; High Dose (50 mg)) was 58577 ± 41616 U/L. The “Aspartate Aminotransferase” value ([1]; High Dose (50 mg)) was 98.75 ± 37.56 U/L, the BUN ([1]; High Dose (50 mg)) was 18.75 ± 1.65 mg/dL and the Basophils ([1]; High Dose (50 mg)) was 0.13 ± 0.05%. The Bicarbonate ([1]; High Dose (50 mg)) was 26.90 ± 1.65 mmol/L, the “Calculated Osmolality” value ([1]; High Dose (50 mg)) was 290.00 ± 9.49 and the Cellular Hemoglobin (Optical) ([1]; High Dose (50 mg)) was 16.3 ± 0.66 pg. The “Cellular Hemoglobin Concentration Mean (Optical)” value ([1]; High Dose (50 mg)) was 31.30 ± 0.86 g/dL, the Chloride ([1]; High Dose (50 mg)) was 108.25 ± 4.99 mmol/L and the Eosinophils ([1]; High Dose (50 mg)) was 0.18 ± 0.05%. It also gave a Glucose ([1]; High Dose (50 mg)) of 69.50 ± 3.70 mg/dL, a Hematocrit ([1]; High Dose (50 mg)) of 29.93 ± 2.01% and a Hemoglobin ([1]; High Dose (50 mg)) of 9.60 ± 0.51 g/dL. The “Hemoglobin Distribution Width” value ([1]; High Dose (50 mg)) was 1.78 ± 0.15 g/dL, the “Large Unstained Cells” value ([1]; High Dose (50 mg)) was 0.88 ± 0.17% and the Lipase ([1]; High Dose (50 mg)) was 155.67 ± 71.84 U/L. For the same molecule, the Lymphocytes ([1]; High Dose (50 mg)) was 38.78 ± 9.52%, the “Mean Corpuscular Hemoglobin” value ([1]; High Dose (50 mg)) was 16.75 ± 0.60 pg and the “Mean Corpuscular Hemoglobin Concentration” value ([1]; High Dose (50 mg)) was 32.18 ± 0.59 g/dL. The “Mean Corpuscular Volume” value ([1]; High Dose (50 mg)) was 52.05 ± 0.97 fL, the “Mean Platelet Volume” value ([1]; High Dose (50 mg)) was 11.53 ± 1.06 fL and the Monocytes ([1]; High Dose (50 mg)) was 1.98 ± 0.71%. For the same molecule, the Myoglobin ([1]; High Dose (50 mg)) was 502.50 ± 148.23 ng/mL, the Neutrophils ([1]; High Dose (50 mg)) was 58.05 ± 9.81% and the Platelets ([1]; High Dose (50 mg)) was 363 ± 32 10³ cells/µL. For the same molecule, the Potassium ([1]; High Dose (50 mg)) was 4.58 ± 0.85 mmol/L, the “Red Blood Cells” value ([1]; High Dose (50 mg)) was 5.75 ± 0.47 10^6 cells/μL and the “Red Cell Distribution Width” value ([1]; High Dose (50 mg)) was 15.55 ± 0.61%. For the same molecule, the Sodium ([1]; High Dose (50 mg)) was 145.50 ± 4.51 mmol/L, the “Total Protein” value ([1]; High Dose (50 mg)) was 4.38 ± 0.78 g/dL and the White Blood Cells ([1]; High Dose (50 mg)) was 17.5 ± 4.92 10³ cells/µL. The Creatinine ([1]; High Dose (50 mg), adjusted p=0.04 versus low dose) was 1.53 ± 0.28 mg/dL, the BE ([1]; Low Dose (15 mg)) was -3.00 ± 5.48 mmol/L and the HCO3 ([1]; Low Dose (15 mg)) was 22.30 ± 4.08 mmol/L. The Lactate ([1]; Low Dose (15 mg)) was 11.84 ± 4.55 mmol/L, the TCO2 ([1]; Low Dose (15 mg)) was 23.75 ± 4.11 mmol/L and the “arterial blood gas pH” value ([1]; Low Dose (15 mg)) was 7.35 ± 0.10. The pCO2 ([1]; Low Dose (15 mg)) was 38.40 ± 5.69 mmHg, the sO2 ([1]; Low Dose (15 mg)) was 100 ± 0% and the pO2 ([1]; Low Dose (15 mg), adjusted p=0.007 versus control) was 191.75 ± 14.73 mmHg. The “Alanine Aminotransferase” value ([1]; Low Dose (15 mg)) was 31.00 ± 36.77 U/L, the Albumin ([1]; Low Dose (15 mg)) was 0.50 ± 0.00 g/dL and the “Alkaline Phosphatase” value ([1]; Low Dose (15 mg)) was 201.50 ± 10.61 U/L. The Amylase ([1]; Low Dose (15 mg)) was 234170 ± 286731 U/L, the “Aspartate Aminotransferase” value ([1]; Low Dose (15 mg)) was 119.00 ± 80.61 U/L and the Basophils ([1]; Low Dose (15 mg)) was 0.20 ± 0.00%. For the same molecule, the Bicarbonate ([1]; Low Dose (15 mg)) was 24.95 ± 2.62 mmol/L, the “Calculated Osmolality” value ([1]; Low Dose (15 mg)) was 291.50 ± 10.61 and the Cellular Hemoglobin (Optical) ([1]; Low Dose (15 mg)) was 15.8 ± 0.42 pg. The “Cellular Hemoglobin Concentration Mean (Optical)” value ([1]; Low Dose (15 mg)) was 30.45 ± 0.49 g/dL, the Chloride ([1]; Low Dose (15 mg)) was 108.50 ± 3.54 mmol/L and the Creatinine ([1]; Low Dose (15 mg)) was 2.01 ± 0.16 mg/dL. It also gave an Eosinophils ([1]; Low Dose (15 mg)) of 0.40 ± 0.00%, a Glucose ([1]; Low Dose (15 mg)) of 46.00 ± 26.87 mg/dL and a Hematocrit ([1]; Low Dose (15 mg)) of 29.35 ± 0.64%. The Hemoglobin ([1]; Low Dose (15 mg)) was 9.55 ± 0.35 g/dL, the “Hemoglobin Distribution Width” value ([1]; Low Dose (15 mg)) was 1.74 ± 0.17 g/dL and the “Large Unstained Cells” value ([1]; Low Dose (15 mg)) was 0.80 ± 0.00%. For the same molecule, the Lipase ([1]; Low Dose (15 mg)) was 19059.00 ± 26899.76 U/L, the Lymphocytes ([1]; Low Dose (15 mg)) was 37.55 ± 18.46% and the “Mean Corpuscular Hemoglobin” value ([1]; Low Dose (15 mg)) was 16.85 ± 0.49 pg. The “Mean Corpuscular Hemoglobin Concentration” value ([1]; Low Dose (15 mg)) was 32.45 ± 0.49 g/dL, the “Mean Corpuscular Volume” value ([1]; Low Dose (15 mg)) was 52.05 ± 0.78 fL and the “Mean Platelet Volume” value ([1]; Low Dose (15 mg)) was 14.90 ± 2.69 fL. The Monocytes ([1]; Low Dose (15 mg)) was 1.05 ± 0.78%, the Myoglobin ([1]; Low Dose (15 mg)) was 425.50 ± 318.91 ng/mL and the Neutrophils ([1]; Low Dose (15 mg)) was 60.05 ± 17.61%. The Platelets ([1]; Low Dose (15 mg)) was 329 ± 228 10³ cells/µL, the Potassium ([1]; Low Dose (15 mg)) was 4.75 ± 0.78 mmol/L and the “Red Blood Cells” value ([1]; Low Dose (15 mg)) was 5.64 ± 0.05 10^6 cells/μL. The “Red Cell Distribution Width” value ([1]; Low Dose (15 mg)) was 15.25 ± 0.78%, the Sodium ([1]; Low Dose (15 mg)) was 145.00 ± 5.66 mmol/L and the “Total Protein” value ([1]; Low Dose (15 mg)) was 4.05 ± 0.07 g/dL. For the same molecule, the White Blood Cells ([1]; Low Dose (15 mg)) was 24 ± 18.9 10³ cells/µL, the BUN ([1]; Low Dose (15 mg), adjusted p=0.03 versus control) was 29.00 ± 2.83 mg/dL and the mortalities ([1]; high dose 50 mg) was “no mortalities”. The “metabolic / lactic acidosis after burn” value ([1]; high dose 50 mg, not statistically significant) was “may ameliorate metabolic acidosis; also recorded: may improve lactic acidosis”, the “effect on mortality, high dose versus low dose” value ([1]; high dose 50 mg, not versus control) was “significantly out-performing the low dose group” and the resuscitation fluid required [1, 3] was “no statistically significant differences; also recorded: did not appear to reduce resuscitation volumes”. For the same molecule, the urine output generated [1, 3] was “no statistically significant differences; also recorded: did not appear to reduce resuscitation volumes or improve urine output”, the mortalities ([1]; low dose 15 mg) was “three” and the “time to mortality, low dose versus high dose” value ([1]; low dose 15 mg, p=0.044) was “significantly worse time to mortality”. The MAP ([2]; 10 min after treatment, i.v. 1.24±0.07 mg/kg at 20 min after hemorrhage, vehicle 31.3±1.1, p=0.02) was 35.9±1.2 mmHg, the “MAP after whole blood resuscitation (FWB)” value ([2]; PHDi treated animals, FWB at 60 min) was “partial restoration of MAP” and the time to death ([2]; acute administration) was “extends the time to death”. The “reduction in the elevation of lactate as compared with vehicle” value ([2]; at 60 min) was “about 30%”, the “lactate after whole blood resuscitation” value ([2]; at 4 hr after transfusion) was “reduced lactate” and the 60 min survivability ([2]; n=13, vehicle 15%, p=0.03) was 62%. For the same molecule, the “prothrombin time (PT)” value ([2]; surviving animals at 60 min and 4 hours followed by whole blood resuscitation) was “significantly elevated” and the “animals surviving for 4 hours after hemorrhage among those that received whole blood resuscitation” value ([2]; vehicle 1 of 2, p=0.036) was 6 of 8.

Source: US20250041302A1, “PROLYL HYDROXYLASE DOMAIN INHIBITOR FOR TREATING HEMORRHAGIC OR BURN SHOCK” (THE GOVERNMENT OF THE UNITED STATES, AS REPRESENTED BY THE …, priority 2022, published 2025)
